Tests used:
Format in all cases: in vivo
kochia (Kochia scoparia) = test: Test C greenhouse herbicide test, postemergence
Procedure, shortened: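 Plants grown in potting mix of peat moss, vermiculite, wetting agent and starter nutrients were sprayed postemergence at 2 to 18 cm height (1- to 4-leaf stage). After 13 to 15 d in the greenhouse, injury was visually rated against untreated controls on a 0–100 scale (0 no effect, 100 complete control).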

[1] = test system: waterhemp (common waterhemp, Amaranthus rudis); test: Test C greenhouse herbicide test, pre- and postemergence
Procedure, shortened: (§1)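 Pre- and postemergence greenhouse screen; values are visual control ratings, 0 meaning no effect and 100 complete kill, assigned relative to untreated plants after 13 to 15 d.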

[2] = test system: ryegrass, Italian (Italian ryegrass, Lolium multiflorum); test: as above
Procedure, shortened: as §1

[3] = test system: foxtail, giant (giant foxtail, Setaria faberii); test: as above
Procedure, shortened: as §1

[4] = test system: lambsquarters (Chenopodium album); test: as above
Procedure, shortened: as §1

corn (Zea mays) = test: as above
Procedure, shortened: as §1

[5] = test system: wheat (winter wheat, Triticum aestivum); test: as above
Procedure, shortened: as §1

[6] = test system: morningglory (Ipomoea coccinea); test: as above
Procedure, shortened: as §1

soybean (Glycine max) = test: as above
Procedure, shortened: as §1

[7] = test system: ragweed (common ragweed, Ambrosia elatior); test: as above
Procedure, shortened: as §1

[8] = test system: blackgrass (Alopecurus myosuroides); test: as above
Procedure, shortened: as §1

[9] = test system: nutsedge, yellow (yellow nutsedge, Cyperus esculentus); test: as above
Procedure, shortened: as §1

[10] = test system: pigweed (Amaranthus retroflexus); test: as above
Procedure, shortened: as §1

[11] = test system: johnsongrass (Sorghum halepense); test: as above
Procedure, shortened: as §1

[12] = test system: oilseed rape (Brassica napus); test: as above
Procedure, shortened: as §1

[13] = test system: crabgrass, large (large crabgrass, Digitaria sanguinalis); test: as above
Procedure, shortened: as §1

[14] = Postemergence, 31 g ai/ha, 0 to 100 scale (0 no effect, 100 complete control)
[15] = Postemergence, 125 g ai/ha, scale 0 to 100, 0 is no effect, 100 is complete control
[16] = Postemergence, 250 g ai/ha, scale 0 to 100, 0 no effect, 100 complete control, 13 to 15 d
[17] = postemergence, 62 g ai/ha, scale 0 to 100, 0 no effect, 100 complete control
[18] = Preemergence, 62 g ai/ha, scale 0 to 100, 0 is no effect, 100 is complete control
[19] = Preemergence, 125 g ai/ha, scale 0 to 100, 0 is no effect, 100 is complete control
[20] = Preemergence, 250 g ai/ha, scale 0 to 100 (0 no effect, 100 complete control)
[21] = Preemergence, 31 g ai/ha, scale 0 to 100, 0 is no effect, 100 is complete control

CC(=O)Oc1c(C)nn(C)c(=O)c1-c1c(C)sc2ccc(C)cc12 [Compound 25]
20: Johnsongrass plant response rating [11, 20] | Plant response rating, Oilseed Rape [12, 15] | Plant response rating, Crabgrass, Large [13, 15] | Plant response rating, Crabgrass, Large [13, 16]
15: Crabgrass, Large plant response rating [13, 17]
30: Blackgrass plant response rating [8, 14] | Plant response rating, Nutsedge, Yellow [9, 18]
60: Plant response rating, Blackgrass [8, 15]
0: Plant response rating, Corn (corn (Zea mays); [21]) | Plant response rating, Corn (corn (Zea mays); [18]) | Plant response rating, Corn (corn (Zea mays); [19]) | Wheat plant response rating [5, 14] | Plant response rating, Wheat [5, 15] | Plant response rating, Wheat [5, 18] | Plant response rating, Wheat [5, 19] | Wheat plant response rating [5, 17] | Soybean plant response rating (soybean (Glycine max); [14]) | Plant response rating, Soybean (soybean (Glycine max); [18]) | Plant response rating, Soybean (soybean (Glycine max); [19]) | Soybean plant response rating (soybean (Glycine max); [17]) | Johnsongrass plant response rating [11, 14] | Plant response rating, Johnsongrass [11, 21] | Plant response rating, Johnsongrass [11, 18] | Oilseed Rape plant response rating [12, 14] | Plant response rating, Oilseed Rape [12, 21] | Plant response rating, Oilseed Rape [12, 18] | Oilseed Rape plant response rating [12, 17]
95: Kochia plant response rating (kochia (Kochia scoparia); [14]) | Kochia plant response rating (kochia (Kochia scoparia); [17]) | Plant response rating, Waterhemp [1, 15] | Waterhemp plant response rating [1, 17] | Plant response rating, Ryegrass, Italian [2, 16] | Plant response rating, Ryegrass, Italian [2, 18] | Plant response rating, Ryegrass, Italian [2, 19] | Ryegrass, Italian plant response rating [2, 20] | Lambsquarters plant response rating [4, 20] | Lambsquarters plant response rating [4, 17] | Plant response rating, Morningglory [6, 18] | Plant response rating, Morningglory [6, 19] | Plant response rating, Ragweed [7, 15] | Plant response rating, Ragweed [7, 16] | Plant response rating, Ragweed [7, 18] | Ragweed plant response rating [7, 20] | Plant response rating, Pigweed [10, 15] | Plant response rating, Crabgrass, Large [13, 19]
35: Foxtail, Giant plant response rating [3, 14] | Foxtail, Giant plant response rating [3, 17] | Oilseed Rape plant response rating [12, 20]
80: Plant response rating, Lambsquarters [4, 21] | Plant response rating, Ragweed [7, 21] | Plant response rating, Blackgrass [8, 16] | Nutsedge, Yellow plant response rating [9, 20]
98: Plant response rating, Waterhemp [1, 16] | Plant response rating, Lambsquarters [4, 15] | Plant response rating, Lambsquarters [4, 16] | Plant response rating, Ragweed [7, 19] | Plant response rating, Pigweed [10, 16]
100: Plant response rating, Kochia (kochia (Kochia scoparia); [15]) | Plant response rating, Kochia (kochia (Kochia scoparia); [16]) | Plant response rating, Waterhemp [1, 18] | Plant response rating, Waterhemp [1, 19] | Waterhemp plant response rating [1, 20] | Foxtail, Giant plant response rating [3, 20] | Morningglory plant response rating [6, 14] | Plant response rating, Morningglory [6, 15] | Plant response rating, Morningglory [6, 16] | Morningglory plant response rating [6, 20] | Morningglory plant response rating [6, 17] | Plant response rating, Pigweed [10, 21] | Plant response rating, Pigweed [10, 18] | Plant response rating, Pigweed [10, 19] | Pigweed plant response rating [10, 20]
40: Plant response rating, Nutsedge, Yellow [9, 21]
55: Blackgrass plant response rating [8, 17]
90: Plant response rating, Ryegrass, Italian [2, 15] | Plant response rating, Ryegrass, Italian [2, 21] | Plant response rating, Foxtail, Giant [3, 19] | Lambsquarters plant response rating [4, 14] | Ragweed plant response rating [7, 14] | Plant response rating, Blackgrass [8, 19] | Blackgrass plant response rating [8, 20] | Plant response rating, Nutsedge, Yellow [9, 15] | Plant response rating, Nutsedge, Yellow [9, 16] | Pigweed plant response rating [10, 14] | Pigweed plant response rating [10, 17] | Crabgrass, Large plant response rating [13, 20]
65: Nutsedge, Yellow plant response rating [9, 14]
75: Waterhemp plant response rating [1, 14] | Plant response rating, Foxtail, Giant [3, 21] | Nutsedge, Yellow plant response rating [9, 17] | Plant response rating, Crabgrass, Large [13, 18]
85: Ryegrass, Italian plant response rating [2, 17] | Plant response rating, Foxtail, Giant [3, 16] | Plant response rating, Foxtail, Giant [3, 18] | Plant response rating, Lambsquarters [4, 18] | Plant response rating, Lambsquarters [4, 19] | Plant response rating, Morningglory [6, 21] | Ragweed plant response rating [7, 17] | Plant response rating, Blackgrass [8, 21] | Plant response rating, Blackgrass [8, 18]
70: Ryegrass, Italian plant response rating [2, 14] | Plant response rating, Foxtail, Giant [3, 15] | Plant response rating, Nutsedge, Yellow [9, 19] | Plant response rating, Crabgrass, Large [13, 21]
5: Corn plant response rating (corn (Zea mays); [14]) | Plant response rating, Corn (corn (Zea mays); [15]) | Corn plant response rating (corn (Zea mays); [17]) | Plant response rating, Wheat [5, 16] | Wheat plant response rating [5, 20] | Soybean plant response rating (soybean (Glycine max); [20]) | Plant response rating, Johnsongrass [11, 15] | Plant response rating, Johnsongrass [11, 19] | Johnsongrass plant response rating [11, 17] | Plant response rating, Oilseed Rape [12, 16] | Plant response rating, Oilseed Rape [12, 19] | Crabgrass, Large plant response rating [13, 14]
10: Plant response rating, Corn (corn (Zea mays); [16]) | Corn plant response rating (corn (Zea mays); [20]) | Plant response rating, Soybean (soybean (Glycine max); [15]) | Plant response rating, Soybean (soybean (Glycine max); [16]) | Plant response rating, Johnsongrass [11, 16]
